We go through 19 molecules from US20160304466A1, “NOVEL COMPOUNDS AS JNK KINASE INHIBITORS” (THE SCRIPPS RESEARCH INSTITUTE, priority 2013, published 2016).

The target in one experiment is JNK1α1/SAP1α, Active (Homo sapiens, UniProt P45983). The experiment can be described thus: Biochemical inhibition of JNK1. Particulars: for EC50: Table 1, compounds of formula (I), mean of n repeats; for IC50: Table 2, compounds of formula (II), read-out: JNK1 (nM) JNK activity (IC50).
A further experiment deals with JNK2α2/SAPK1c, active (Homo sapiens, UniProt P45984). Nature of the experiment: Biochemical inhibition of JNK2. Particulars: Table 1, compounds of formula (I); mean of n repeats. As for the experimental part:
A 10 point titration of all compounds was carried out in 3-fold dilutions from 10 pM-2000 nM. After 22 min, the kinase reaction was terminated by addition of 10 μl of quenching solution [50 mM Hepes, pH 7.0, with 14 mM EDTA, 0.01% Triton X-100, 400 mM KF (all from Sigma-Aldrich)]. The detection reagents, streptavidin-x1APC (200 nM) and europium cryptate-labeled rabbit polyclonal anti-phospho-ATF2 (1 nM), were from Cis-Bio. The HTRF signal was detected using an Envision plate reader (Perkin Elmer) 1 h post-quenching. The data from multiple different experiments were averaged and presented as the mean±standard deviation.

In experiment [1] the target is JNK3/SAPK1b, Active (activated JNK3α1) (Homo sapiens, UniProt P53779). The experiment can be described thus: Biochemical inhibition of JNK3 (HTRF enzyme inhibition assay). Particulars: for EC50: Table 1, compounds of formula (I), mean of n repeats; for IC50: Table 2, compounds of formula (II), read-out: JNK3 (nM) JNK activity (IC50). On the procedure:
Enzyme inhibition studies were performed in 384-well polystyrene HTRF plates (Grainier) for 22 min at ambient temperature (˜22° C.) with 0.2 μM biotinylated FL-ATF2, 1 μM ATP, 0.75 nM activated JNK3α1 (with a control in the absence of kinase for determining the basal signal) in 10 μL volumes containing the final concentrations of the following: 50 mM Hepes, pH 7.0, 2.5 mM MgCl2, 0.1 mg/ml bovine serum albumin, 1 mM DL-dithiothreitol, 0.01% Triton X-100 (all from Sigma-Aldrich), and 5% DMSO (with or without compound). A 10 point titration of all compounds was carried out in 3-fold dilutions from 10 pM-2000 nM. After 22 min, the kinase reaction was terminated by addition of 10 μl of quenching solution [50 mM Hepes, pH 7.0, with 14 mM EDTA, 0.01% Triton X-100, 400 mM KF (all from Sigma-Aldrich)]. The detection reagents, streptavidin-x1APC (200 nM) and europium cryptate-labeled rabbit polyclonal anti-phospho-ATF2 (1 nM), were from Cis-Bio. The HTRF signal was detected using an Envision plate reader (Perkin Elmer) 1 h post-quenching. The data from multiple different experiments were averaged and presented as the mean±standard deviation. IC50 values were determined by fitting the data to the equation for a four-parameter logistic. p38 enzyme inhibition assays were performed identically to the JNK3 assays with the exception that the reaction time was […], 0.5 μM biotinylated FL-ATF2, ATP=11 μM, and p38 (Millipore)=3 nM.

Sequence of JNK2α2/SAPK1c, active (P45984 whole entry): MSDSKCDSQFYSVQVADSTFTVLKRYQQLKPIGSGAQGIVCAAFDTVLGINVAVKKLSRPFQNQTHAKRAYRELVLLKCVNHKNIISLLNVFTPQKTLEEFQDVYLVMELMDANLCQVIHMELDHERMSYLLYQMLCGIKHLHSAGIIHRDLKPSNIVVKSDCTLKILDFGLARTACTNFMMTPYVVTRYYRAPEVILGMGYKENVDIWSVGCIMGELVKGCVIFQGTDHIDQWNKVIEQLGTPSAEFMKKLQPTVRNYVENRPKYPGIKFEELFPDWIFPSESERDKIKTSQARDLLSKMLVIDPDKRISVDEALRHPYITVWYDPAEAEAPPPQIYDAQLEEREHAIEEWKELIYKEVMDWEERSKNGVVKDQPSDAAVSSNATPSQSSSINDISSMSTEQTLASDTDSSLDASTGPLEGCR
Sequence of JNK3/SAPK1b, Active (activated JNK3α1) (P53779 1-422 isoform P53779-2): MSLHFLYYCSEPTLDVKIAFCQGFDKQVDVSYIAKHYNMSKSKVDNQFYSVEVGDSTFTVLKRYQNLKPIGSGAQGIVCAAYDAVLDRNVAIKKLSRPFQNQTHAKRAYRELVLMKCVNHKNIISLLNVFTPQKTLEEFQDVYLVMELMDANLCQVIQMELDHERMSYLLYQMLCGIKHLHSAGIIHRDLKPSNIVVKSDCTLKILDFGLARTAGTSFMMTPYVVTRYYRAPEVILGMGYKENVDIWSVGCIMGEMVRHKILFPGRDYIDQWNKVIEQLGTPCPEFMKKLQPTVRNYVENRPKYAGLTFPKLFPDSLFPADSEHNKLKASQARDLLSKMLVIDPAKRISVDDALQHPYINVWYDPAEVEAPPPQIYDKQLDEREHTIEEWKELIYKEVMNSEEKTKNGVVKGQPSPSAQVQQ
Sequence of JNK1α1/SAP1α, Active (P45983 1-384 isoform P45983-2): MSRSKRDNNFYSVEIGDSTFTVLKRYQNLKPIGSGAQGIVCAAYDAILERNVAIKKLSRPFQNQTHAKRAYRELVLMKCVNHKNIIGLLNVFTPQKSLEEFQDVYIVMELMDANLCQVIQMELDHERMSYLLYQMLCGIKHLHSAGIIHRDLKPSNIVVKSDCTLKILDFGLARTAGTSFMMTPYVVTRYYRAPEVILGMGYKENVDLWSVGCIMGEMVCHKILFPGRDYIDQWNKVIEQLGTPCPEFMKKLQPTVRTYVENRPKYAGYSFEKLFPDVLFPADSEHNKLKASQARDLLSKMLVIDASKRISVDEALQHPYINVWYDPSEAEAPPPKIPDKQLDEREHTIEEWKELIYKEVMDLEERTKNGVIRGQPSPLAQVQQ

With `Cc1cc(NC(=O)c2cccc(-n3cc(NC(=O)Nc4ccccc4Cl)cn3)c2)ccn1` [Example I-10, 3-(4-(3-(2-chlorophenyl)ureido)-1H-pyrazol-1-yl)-N-(2-methylpyridin-4-yl)benzamide], the EC50 at JNK1α1/SAP1α, Active is more than 1000 nM; at JNK2α2/SAPK1c, active, less than 200 nM; in experiment [1], less than 200 nM.
With `CC(C)n1cc(NC(=O)c2cccc(-n3cc(NC(=O)Nc4ccccc4Cl)cn3)c2)cn1` [Example I-86, 3-(4-(3-(2-chlorophenyl)ureido)-1H-pyrazol-1-yl)-N-(1-isopropyl-1H-pyrazol-4-yl)benzamide], the EC50 was more than 1000 nM on JNK1α1/SAP1α, Active; 200 to 1000 nM on JNK2α2/SAPK1c, active; less than 200 nM in experiment [1].
As to `CC(C)NC(=O)N1CCC(Nc2ncc3ccc(=O)n(C4CCCC4)c3n2)CC1` [Example II-21, 4-(8-Cyclopentyl-7-oxo-7,8-dihydro-pyrido[2,3-d]pyrimidin-2-ylamino)-piperidine-1-carboxylic acid isopropylamide], the IC50 on JNK1α1/SAP1α, Active lay in the range of 200 to 1000 nM; in experiment [1] it was 200 to 1000 nM.
On to `Cc1cccc(CNC(=O)c2cccc(-n3cc(NC(=O)Nc4ccccc4Cl)cn3)c2)n1` [Example I-11, 3-(4-(3-(2-chlorophenyl)ureido)-1H-pyrazol-1-yl)-N-((6-methylpyridin-2-yl)methyl)benzamide], for which the EC50 was more than 1000 nM on JNK1α1/SAP1α, Active; 200 to 1000 nM at JNK2α2/SAPK1c, active; 200 to 1000 nM in experiment [1].
As for `O=c1ccc2cnc(N[C@H]3CC[C@H](O)CC3)nc2n1C1CCCC1` [Example II-20, Trans-8-Cyclopentyl-2-(4-hydroxy-cyclohexylamino)-8H-pyrido[2,3-d]pyrimidin-7-one], the IC50 at JNK1α1/SAP1α, Active was less than 200 nM; in experiment [1], less than 200 nM.
On to `Cn1nc(C2CC2)cc1NC(=O)c1cccc(-n2cc(NC(=O)Nc3ccccc3Cl)cn2)c1` [Example I-89, 3-(4-(3-(2-chlorophenyl)ureido)-1H-pyrazol-1-yl)-N-(3-cyclopropyl-1-methyl-1 H-pyrazol-5-yl)benzamide], for which the EC50 is more than 1000 nM at JNK1α1/SAP1α, Active; less than 200 nM on JNK2α2/SAPK1c, active; less than 200 nM in experiment [1].
As to `Cc1cc(NC(=O)c2cccc(-n3cc(NC(=O)Nc4ccccc4C)cn3)c2)ccn1` [Example I-51, N-(2-methylpyridin-4-yl)-3-(4-(3-(o-tolyl)ureido)-1H-pyrazol-1-yl)benzamide], the EC50 on JNK1α1/SAP1α, Active is 200 to 1000 nM; on JNK2α2/SAPK1c, active, less than 200 nM; in experiment [1] it was less than 200 nM.
Turning to `CCNC(=O)N1CCC(Nc2ncc3ccc(C4CC4)nc3n2)CC1` [Example II-42, 4-((7-cyclopropylpyrido[2,3-d]pyrimidin-2-yl)amino)-N-ethylpiperidine-1-carboxamide], on JNK1α1/SAP1α, Active, the IC50 is more than 1000 nM.
On JNK2α2/SAPK1c, active, `Cc1ccc(-c2ncn(-c3ccc(Nc4nccc(-c5cccc(N6CCOCC6)c5)n4)cc3)n2)cn1` [SR-3306, reference compound] registered an EC50 of 200 to 1000 nM.
With `Cc1nn(CCN2CCCC2)cc1NC(=O)c1cccc(-n2cc(NC(=O)Nc3ccccc3Cl)cn2)c1` [Example I-104, 3-(4-(3-(2-chlorophenyl)ureido)-1H-pyrazol-1-yl)-N-(3-methyl-1-(2-(pyrrolidin-1-yl)ethyl)-1H-pyrazol-4-yl)benzamide], the EC50 on JNK1α1/SAP1α, Active was more than 1000 nM; on JNK2α2/SAPK1c, active it was less than 200 nM; in experiment [1] it was less than 200 nM.
`O=C(Nc1cnn(-c2cccc(C(=O)Nc3cnn(CCN4CCCC4)c3)c2)c1)Nc1ccccc1Cl` [Example I-101, 3-(4-(3-(2-chlorophenyl)ureido)-1H-pyrazol-1-yl)-N-(1-(2-(pyrrolidin-1-yl)ethyl)-1H-pyrazol-4-yl)benzamide]: the EC50 at JNK1α1/SAP1α, Active was more than 1000 nM; on JNK2α2/SAPK1c, active, less than 200 nM; in experiment [1], less than 200 nM.
For `CC(C)n1c(=O)ccc2cnc(NC3CCN(Cc4ccccc4)CC3)nc21` [Example II-6, 2-(1-Benzyl-piperidin-4-ylamino)-8-isopropyl-8H-pyrido[2,3-d]pyrimidin-7-one], the IC50 is 200 to 1000 nM at JNK1α1/SAP1α, Active and more than 1000 nM in experiment [1].
Turning to `Cn1ccc(NC(=O)c2cccc(-n3cc(NC(=O)Nc4ccccc4Cl)cn3)c2)n1` [Example I-98, 3-(4-(3-(2-chlorophenyl)ureido)-1H-pyrazol-1-yl)-N-(1-methyl-1H-pyrazol-3-yl)benzamide], the EC50 is 200 to 1000 nM on JNK1α1/SAP1α, Active; less than 200 nM at JNK2α2/SAPK1c, active; less than 200 nM in experiment [1].
With `Cn1c(=O)ccc2cnc(N[C@H]3CC[C@H](O)CC3)nc21` [Example II-29, Trans 2-((4-hydroxycyclohexyl)amino)-8-methylpyrido[2,3-d]pyrimidin-7(8H)-one], the IC50 at JNK1α1/SAP1α, Active was less than 200 nM; in experiment [1], less than 200 nM.
For the molecule `c1cc2cnc(NC3CCNCC3)nc2nc1C1CC1` [Example II-40, 7-cyclopropyl-N-(piperidin-4-yl)pyrido[2,3-d]pyrimidin-2-amine], the IC50 at JNK1α1/SAP1α, Active is more than 1000 nM.
For `Cc1ccc(CNC(=O)c2cccc(-n3cc(NC(=O)Nc4ccccc4Cl)cn3)c2)cn1` [Example I-9, 3-(4-(3-(2-chlorophenyl)ureido)-1H-pyrazol-1-yl)-N-((6-methylpyridin-3-yl)methyl)benzamide], the EC50 is more than 1000 nM at JNK1α1/SAP1α, Active; 200 to 1000 nM on JNK2α2/SAPK1c, active; 200 to 1000 nM in experiment [1].
Take `Cc1cc(NC(=O)c2cccc(-n3cc(NC(=O)Nc4ccccc4Cl)cn3)c2)cc(C)n1` [Example I-22, 3-(4-(3-(2-chlorophenyl)ureido)-1H-pyrazol-1-yl)-N-(2,6-dimethylpyridin-4-yl)benzamide]: the EC50 on JNK1α1/SAP1α, Active was more than 1000 nM; at JNK2α2/SAPK1c, active, 200 to 1000 nM; in experiment [1] it was less than 200 nM.
In the case of `O=C(NC1CCCC1)N[C@H]1CC[C@H](Nc2ncc3ccc(=O)[nH]c3n2)CC1` [Example II-28], the IC50 on JNK1α1/SAP1α, Active was 200 to 1000 nM; in experiment [1], 200 to 1000 nM.
`c1cc2cnc(NC3CCNCC3)nc2nc1N1CCCC1` [Example II-49, N-(piperidin-4-yl)-7-(pyrrolidin-1-yl)pyrido[2,3-d]pyrimidin-2-amine]: the IC50 on JNK1α1/SAP1α, Active was more than 1000 nM.
